The term aqueous solubility denotes how much of the substance goes into solution per volume. High values mean a readily soluble substance, low ones a poorly soluble substance.

Molecules are shown by their SMILES. Converted amounts (≈) assume the structure as drawn. Like-named read-outs stand apart in the source and are kept apart here. *1 amine or outer side, *2 acyl side, *3 side chain or, on linkers, in order; H or OH if unused. Where a SMILES comes first, the peptide text is derived from it. [ ]: non-standard residue; d: D form. X2 = O=C([C@@H](Cc1cc(C(F)(F)F)c(O)c(C(F)(F)F)c1)N[*:1])[*:2]; Aminotetradecanoyl(3R) = CCCCCCCCCCC[C@H](CC(=O)[*:2])N[*:1]; dTyr(3-CF3) = N[C@H](Cc1ccc(O)c(C(F)(F)F)c1)C(=O)O; X1 = O=C(C[C@@H](CCCCCCCCCCC(F)(F)F)N[*:1])[*:2] Where only a bound is given, the exact number is not on record here.

Five compounds from article PMC12777510 (Chempluschem, 2025) can be followed below.

For data set [1], the system named is Fusarium graminearum. The settings on record: broth microdilution, RPMI 1640 pH 7, 96-well plates, 28 °C for 48 h, no agitation, visual read-out, lowest concentration with complete inhibition of growth; DMSO max 2.5% v/v; triplicate. Background: Broth dilution looks for growth in wells or tubes with falling amounts of substance.
Data set [2] deals with Candida albicans. The settings on record: for MIC C. albicans: 24 h, pH 7.
Data set [3] concerns Fusarium graminearum. In words: microbe, parasite or virus in culture. The settings on record: 48 h, pH 7, read-out: MIC F. graminearum.
Data set [4] deals with Candida albicans. In words: microbe, parasite or virus in culture. The settings on record: 24 h, pH 7, read-out: MIC C. albicans.
For data set [5] the following is noted: HPLC retention times compared to parent iturin A2, result in words.
For data set [6] the following is noted: 19F NMR samples in D2O containing Saboraud Dextrose Broth (30 g/L), 5% d6-DMSO added to avoid precipitation.

`CCCCCCCCCCC[C@@H]1CC(=O)N[C@@H](CC(N)=O)C(=O)N[C@H](Cc2ccc(O)cc2)C(=O)N[C@H](CC(N)=O)C(=O)N[C@@H](CCC(N)=O)C(=O)N2CCC[C@H]2C(=O)N[C@H](CC(N)=O)C(=O)N[C@@H](CO)C(=O)N1` [Synthetic iturin A2, iturin A2, reference compound] (cyclo(N[dY][dN]QP[dN]S[Aminotetradecanoyl(3R)])): in the data set with Fusarium graminearum [1], the “MIC F. graminearum” value worked out at 16 µM (≈ 16.7 µg/mL). Moreover, the “MIC C. albicans” value with Candida albicans [2] turned out to be 64 µM (≈ 66.8 µg/mL).

On to `NC(=O)CC[C@@H]1NC(=O)[C@@H](CC(N)=O)NC(=O)[C@@H](Cc2ccc(O)cc2)NC(=O)[C@H](CC(N)=O)NC(=O)C[C@@H](CCCCCCCCCCC(F)(F)F)NC(=O)[C@H](CO)NC(=O)[C@@H](CC(N)=O)NC(=O)[C@@H]2CCCN2C1=O` [Compound 9, ω‐CF3 iturin A2] (cyclo(N[dY][dN]QP[dN]S[X1])), for which the “MIC F. graminearum” value in the data set with Fusarium graminearum [1] amounted to 64 µM (≈ 70.2 µg/mL). In addition, in the data set with Candida albicans [2], the “change in bioactivity against C. albicans compared to iturin A2” value was “completely retains the bioactivity” and the “MIC C. albicans” value came to 64 µM (≈ 70.2 µg/mL).

`C[C@@H]1[C@H](O)[C@@H](C)/C=C/C=C/C=C/C=C/C=C/C=C/C=C/[C@H](O[C@@H]2O[C@H](C)[C@@H](O)[C@H](N)[C@@H]2O)C[C@@H]2O[C@](O)(C[C@@H](O)C[C@@H](O)[C@H](O)CC[C@@H](O)C[C@@H](O)CC(=O)O[C@H]1C)C[C@H](O)[C@H]2C(=O)O` [Amphotericin B]: the values for the MIC in the data set with Fusarium graminearum [3] and in the data set with Candida albicans [4] were 4 µM (≈ 3.7 µg/mL) and 2 µM (≈ 1.85 µg/mL), respectively.

For the compound `CCCCCCCCCCC[C@@H]1CC(=O)N[C@@H](CC(N)=O)C(=O)N[C@H](Cc2cc(C(F)(F)F)c(O)c(C(F)(F)F)c2)C(=O)N[C@H](CC(N)=O)C(=O)N[C@@H](CCC(N)=O)C(=O)N2CCC[C@H]2C(=O)N[C@H](CC(N)=O)C(=O)N[C@@H](CO)C(=O)N1` [Compound 11, di‐o‐CF3‐Tyr iturin A2] (cyclo(N[X2][dN]QP[dN]S[Aminotetradecanoyl(3R)])), the “MIC F. graminearum” value in the data set on Fusarium graminearum [1] is more than 128 µM. Also, in the data set on Candida albicans [2], the “MIC C. albicans” value was more than 128 µM. In addition, the “relative lipophilicity (hydrophobicity) by HPLC retention, compared to the natural lipopeptide” value in data set [5] was “increased proportionally to the increase in fluorine content”.

Regarding `CCCCCCCCCCC[C@@H]1CC(=O)N[C@@H](CC(N)=O)C(=O)N[C@H](Cc2ccc(O)c(C(F)(F)F)c2)C(=O)N[C@H](CC(N)=O)C(=O)N[C@@H](CCC(N)=O)C(=O)N2CCC[C@H]2C(=O)N[C@H](CC(N)=O)C(=O)N[C@@H](CO)C(=O)N1` [Compound 10, o‐CF3‐Tyr iturin A2] (cyclo(N[dTyr(3-CF3)][dN]QP[dN]S[Aminotetradecanoyl(3R)])), in the data set with Fusarium graminearum [1], the “MIC F. graminearum” value was 128 µM (≈ 142 µg/mL). For the same compound, the “MIC C. albicans” value with Candida albicans [2] was 128 µM (≈ 142 µg/mL). For the same compound, the aqueous solubility in data set [6] worked out at 50 µM (≈ 55.6 µg/mL). Further, the results for the “relative lipophilicity (hydrophobicity) by HPLC retention, compared to the natural lipopeptide” value in data set [5] and in data set [5] (listed as o‐CF3‐Tyr) were “pronounced increase in lipophilicity” and “increased proportionally to the increase in fluorine content”, respectively.
